Marks after values point to notes of the source that are not given here.
Experiments:
Type in all cases: in vivo
[1] = test system: Phakopsora pachyrhizi; experiment: Test A: test suspension sprayed on soybean seedlings one day before inoculation with Phakopsora pachyrhizi spores (Asian soybean rust), visual disease rating; details: 100 = 100% disease control, 0 = no control; for pest or weed control at 10 ppm / pest or weed control at 50 ppm: Phakopsora pachyrhizi
Method in brief: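 Compound dissolved in acetone (3% of final volume), then suspended at the stated ppm in 50/50 acetone/water with 250 ppm PEG400 surfactant; sprayed to run-off on soybean seedlings, inoculated with P. pachyrhizi spores next day. Held saturated at 22° C for 24 h, then 8 days at 22° C; visual rating as % disease control versus controls.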

[2] = test system: Puccinia recondita f. sp. tritici; experiment: Test B: test suspension sprayed on wheat seedlings one day before inoculation with Puccinia recondita f. sp. tritici spores (wheat leaf rust), disease rating; details: 100 = 100% disease control, 0 = no control
Method in brief: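 Wheat seedlings were sprayed to run-off with compound suspended in 50/50 acetone/water containing 250 ppm PEG400, then inoculated with P. recondita f. sp. tritici spores the next day. Plants were held 24 h in saturated air at 20 °C, then 6 days in a growth chamber at 20 °C. Disease control was rated 0–100% relative to controls, with some entries run at 50 or 10 ppm.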

[3] = test system: Uncinula necator; experiment: Test C: test suspension sprayed on grape seedlings one day before inoculation with Uncinula necator spores (grape powdery mildew), disease rating; details: 50 ppm test suspension, 100 = 100% disease control; for pest or weed control at 50 ppm: Erysiphe necator
Source text: General protocol for preparing test suspensions for Tests A-C: the test compounds were first dissolved in acetone in an amount equal to 3% of the final volume and then suspended at the desired concentration (in ppm) in acetone and purified water (50/50 mix by volume) containing 250 ppm of the surfactant PEG400 (polyhydric alcohol esters). The resulting test suspensions were then used in Tests A-C. The test solution was sprayed to the point of run-off on grape seedlings. The following day the seedlings were inoculated with a spore suspension of Uncinula necator (the causal agent of grape powdery mildew) and incubated in a growth chamber at 20° C. for 12 days, after which time disease ratings were made. Results for Tests A-C are given in Table A. In the Table, a rating of 100 indicates 100% disease control and a rating of 0 indicates no disease control (relative to the controls). An asterisk “*” or a double asterisk “**” next to the rating value indicates a 50 ppm or 10 ppm test suspension was used, respectively. A dash (-) indicates the compound was not tested.

Compound | Test A rating (disease control) ([1]; 10 ppm test suspension) | Test B rating (disease control) ([2]; 10 ppm test suspension) | also measured
CCO/C(=C\Oc1ccc(Cn2cc(C(=O)OCC(C)C)cn2)cc1)C(F)(F)F [compound 219] | 100% | 0% | Test C rating (disease control) [3]: 100* %
CCCCOC(=O)c1cnn(Cc2ccc(O/C=C(\OCC)C(F)(F)F)cc2)c1 [Compound 218, butyl 1-[[4-[[(1Z)-2-ethoxy-3,3,3-trifluoro-1-propen-1-yl]oxy]phenyl]methyl]-1H-pyrazole-4-carboxylate] |  |  | pest or weed control at 10 ppm ([1]; 10 ppm test suspension): 100%; pest or weed control at 10 ppm ([2]; 10 ppm test suspension): 0%; pest or weed control at 50 ppm [3]: 100%
O=C(COC(=O)c1cnn(Cc2ccc(OCC3(C(F)(F)F)OCCO3)cc2)c1)c1ccccc1 [compound 170] | 100% | 0% | Test C rating (disease control) [3]: 100* %
N#CCCCOC(=O)c1cnn(Cc2ccc(OCC3(C(F)(F)F)OCCO3)cc2)c1 [Compound 171, 3-cyanopropyl 1-[[4-[[2-(trifluoromethyl)-1,3-dioxolan-2-yl]methoxy]phenyl]methyl]-1H-pyrazole-4-carboxylate] |  |  | pest or weed control at 10 ppm ([1]; 10 ppm test suspension): 100%; pest or weed control at 10 ppm ([2]; 10 ppm test suspension): 0%; pest or weed control at 50 ppm [3]: 99%
CCO/C(=C\Oc1ccc(Cn2cc(C(=O)OCC3CC3)cn2)cc1)C(F)(F)F [compound 220] | 100% | 0% | Test C rating (disease control) [3]: 100* %
CCO/C(=C\Oc1ccc(Cc2ncc(C(=O)NCC(F)F)s2)cc1)C(F)(F)F [compound 276] | 13% | 0% | Test C rating (disease control) [3]: 100* %
C#CCOC(=O)c1cnn(Cc2ccc(O/C=C(\OCC)C(F)(F)F)cc2)c1 [compound 185] | 100% | 0% | Test C rating (disease control) [3]: 100* %
CCOC(=O)c1cnn(Cc2cccc(O/C=C(\OCC)C(F)(F)F)c2)c1 [Compound 265, ethyl 1-[[3-[[(1Z)-2-ethoxy-3,3,3-trifluoro-1-propen-1-yl]oxy]phenyl]methyl]-1H-pyrazole-4-carboxylate] |  |  | pest or weed control at 50 ppm ([1]; 50 ppm test suspension): 100%; pest or weed control at 50 ppm ([2]; 50 ppm test suspension): 0%; pest or weed control at 50 ppm [3]: 100%
CC#CCOC(=O)c1cnn(Cc2ccc(OCC3(C(F)(F)F)OCCO3)cc2)c1 [Compound 163, 2-butyn-1-yl 1-[[4-[[2-(trifluoromethyl)-1,3-dioxolan-2-yl]methoxy]phenyl]methyl]-1H-pyrazole-4-carboxylate] |  |  | pest or weed control at 10 ppm ([1]; 10 ppm test suspension): 100%; pest or weed control at 10 ppm ([2]; 10 ppm test suspension): 0%; pest or weed control at 50 ppm [3]: 100%
CCOC(=O)c1cnn(Cc2ccc(O/C=C(\OC(C)C)C(F)(F)F)cc2)c1 [compound 57] |  |  | Test A rating (disease control) ([1]; 250 ppm test suspension): 100%; Test B rating (disease control) ([2]; 250 ppm test suspension): 0%; Test C rating (disease control) [3]: 100* %
CC(C)COC(=O)c1cnn(Cc2ccc(OCC3(C(F)(F)F)OCCO3)cc2)c1 [Compound 126, 2-methylpropyl 1-[[4-[[2-(trifluoromethyl)-1,3-dioxolan-2-yl]methoxy]phenyl]methyl]-1H-pyrazole-4-carboxylate] |  |  | pest or weed control at 10 ppm ([1]; 10 ppm test suspension): 100%; pest or weed control at 10 ppm ([2]; 10 ppm test suspension): 0%; pest or weed control at 50 ppm [3]: 100%
CCOC(=O)C1=NOC(c2ccc(O/C=C(\OCC)C(F)(F)F)cc2)C1 (stereo not shown) [compound 278] |  |  | Test A rating (disease control) ([1]; 50 ppm test suspension): 94%; Test B rating (disease control) ([2]; 50 ppm test suspension): 0%
CCO/C(=C\Oc1ccc(C(N)=O)cc1)C(F)(F)F [compound 99] | 0% | 80% | 
O=C(OC1CCC1)c1cnn(Cc2ccc(OCC3(C(F)(F)F)OCCO3)cc2)c1 [compound 318] | 100% | 0% | 
O=C(OCC(F)(F)F)c1cnn(Cc2ccc(OCC(O)(O)C(F)(F)F)cc2)c1 [Compound 45] | 87% | 85% | 
C=CCO/C(=C\Oc1ccc(Cn2cc(C(=O)OCC)cn2)cc1)C(F)(F)F [compound 55] | 0% | 0% | 
CCO/C(=C\Oc1ccc(Cn2ccc(C(=O)OCC3CCC3)n2)cc1)C(F)(F)F [compound 361] | 100% | 0% | 
CCO/C(=C\Oc1ccc(Cn2ccnc2)cc1)C(F)(F)F [compound 156] | 0% | 0% | 
O=[N+]([O-])c1ccc(OCC(O)(O)C(F)(F)F)cc1 [Compound 280] |  |  | Test A rating (disease control) ([1]; 50 ppm test suspension): 100%; Test B rating (disease control) ([2]; 50 ppm test suspension): 100%
C#CCOC(=O)c1ccn(Cc2ccc(O/C=C(\OCC)C(F)(F)F)cc2)n1 [compound 325] | 100% | 0% | 
O=C(NCC1CC1)c1cnn(Cc2ccc(OCC(O)(O)C(F)(F)F)cc2)c1 [Compound 36] | 70% | 0% | 
CCO/C(=C\Oc1ccc(CN2CCC(C#N)CC2)cc1)C(F)(F)F [compound 311] | 0% | 0% | 

Compound | Test A rating (disease control) ([1]; 10 ppm test suspension) | Test B rating (disease control) ([2]; 10 ppm test suspension) | also measured
CCO/C(=C\Oc1ccc(Cn2cc(C(=O)NCC#N)cn2)cc1)C(F)(F)F [compound 107] | 0% | 0% | 
CCO/C(=C\Oc1ccc(C(=O)OC(C)C)cc1)C(F)(F)F [compound 73] | 0% | 0% | 
CCOC(=O)c1cnn(Cc2ccc(OCC3(C(F)(F)F)OC(=O)CS3)cc2)c1 (stereo not shown) [Compound 20] | 98% | 86% | 
COC(=O)c1ccc(OCC2(C(F)(F)F)OCCO2)cc1 [compound 189] | 0% | 0% | 
O=C(NCC1CC1)c1cnc(Cc2ccc(OCC3(C(F)(F)F)OCCO3)cc2)s1 [Compound 259] | 25% | 0% | 
CCNC(=O)OCc1ccc(O/C=C(\OCC)C(F)(F)F)cc1 [compound 196] | 0% | 74% | 
O=C(OCc1ccccn1)c1cnn(Cc2ccc(OCC3(C(F)(F)F)OCCO3)cc2)c1 [compound 199] | 100% | 0% | 
CCO/C(=C\Oc1ccc(CO)cc1)C(F)(F)F [compound 195] | 0% | 0% | 
CCOC(=O)c1cnn(Cc2ccc(CO/C=C(\OCC)C(F)(F)F)cc2)c1 [compound 167] | 38% | 0% | 
CCO/C(=C\Oc1ccc(Cc2ccnc(S(C)(=O)=O)n2)cc1)C(F)(F)F [compound 307] |  |  | Test A rating (disease control) ([1]; 50 ppm test suspension): 0%; Test B rating (disease control) ([2]; 50 ppm test suspension): 0%
CCOC(=O)c1cnn(Cc2cccc(OCC(O)(O)C(F)(F)F)c2)c1 [Compound 266, ethyl 1-[[3-(3,3,3-trifluoro-2,2-dihydroxypropoxy)phenyl]methyl]-1H-pyrazole-4-carboxylate] |  |  | pest or weed control at 50 ppm ([1]; 50 ppm test suspension): 86%; pest or weed control at 50 ppm ([2]; 50 ppm test suspension): 74%
CON(Cc1ccc(OCC2(C(F)(F)F)OCCO2)cc1)C(=O)OC(C)(C)C [compound 238] | 73% | 0% | 
CCOC(=O)NCc1ccc(O/C=C(\OCC)C(F)(F)F)cc1 [compound 111] | 0% | 0% | 
O=C(NCC(F)(F)F)c1csc(Cc2ccc(OCC(O)(O)C(F)(F)F)cc2)n1 [Compound 68] | 100% | 95% | 
CCOC(=O)c1csc(Cc2ccc(OCC(O)(O)C(F)(F)F)cc2)n1 [Compound 136] | 98% | 83% | 
CCO/C(=C\Oc1ccc([N+](=O)[O-])cc1)C(F)(F)F [compound 279] |  |  | Test A rating (disease control) ([1]; 50 ppm test suspension): 0%; Test B rating (disease control) ([2]; 50 ppm test suspension): 0%
C#CCOC(=O)c1cnn(Cc2cccc(O/C=C(\OCC)C(F)(F)F)c2)c1 [compound 336] | 100% | 0% | 
CCO/C(=C\Oc1ccc(CN2C(=O)c3ccccc3C2=O)cc1)C(F)(F)F [compound 184] | 0% | 0% | 
CCCC(=O)N(Cc1ccc(OCC2(C(F)(F)F)OCCO2)cc1)OC [compound 237] | 97% | 0% | 
C#CCOC(=O)c1ccc(O/C=C(\OCC)C(F)(F)F)cc1 [compound 75] | 0% | 0% | 
CN(C)C(=O)C1=NOC(c2ccc(OCC3(C(F)(F)F)OCCO3)cc2)C1 (stereo not shown) [compound 22] | 38% | 0% | 
